The test system of data set [1] is ICAM-1 expression in BEAS2B cells. The experiment in a line: Poly I:C-induced ICAM-1 induction in BEAS2B cells. The class given is cell-based. The following applies: Homo sapiens, BEAS-2B; BEAS2B cells, poly I:C 1 μg/mL, 18 hr; read-out: BEAS2B (polyIC) ICAM1 IC50. The method, then:
Poly I:C (1 μg/mL) (Invivogene Ltd., San Diego, Calif.) was transfected into BEAS2B cells (human bronchial epithelial cells, ATCC) with Oligofectamine (Invitrogen, Carlsbad, Calif.). Cells were pre-incubated with final concentrations of test compounds for 2 hr and the level of ICAM1 expression on the cell surface was determined by cell-based ELISA. […] The cells were washed with PBS-Tween and incubated with the secondary antibody (HRP-conjugated anti-rabbit IgG, Dako Ltd., Glostrup, Denmark).

The subject of data set [2] is TNFα release in THP-1 cells. Nature of the data set: LPS-induced TNFα release in THP-1 cells. The following applies: Homo sapiens; THP-1 cells, LPS 3 μg/mL, 4 hr; read-out: THP1 (LPS) TNFα IC50. In kind it is cell-based. The method, then: The inhibition of TNFα production was calculated at each concentration by comparison with vehicle control.
In the next data set the target is cSrc enzyme (Homo sapiens (Human), UniProt P12931). Nature of the data set: c-SRC enzyme inhibition assay (FRET, Z'-LYTE). In kind it is biochemical. Particulars: read-out: Enzyme Profile: IC50 Values cSrc.
A further data set deals with HCK enzyme (Homo sapiens (Human), UniProt P08631). Nature of the data set: HCK enzyme inhibition assay (FRET, Z'-LYTE). The class given is biochemical. Particulars: read-out: Enzyme Profile: IC50 Values HCK.
The next data set has as its target p38 MAPK alpha (MAPK14) (Homo sapiens (Human), UniProt Q16539). The experiment in a line: Enzyme inhibition assay (FRET, Z-LYTE), p38 MAPK alpha via MAPKAP-K2 activation. In kind it is biochemical. Particulars: read-out: Enzyme Profile: IC50 Values p38α. Here is the method: (§1) The enzyme inhibitory activity of test compounds was determined by fluorescence resonance energy transfer (FRET) using synthetic peptides labelled with both donor and acceptor fluorophores (Z-LYTE, Invitrogen). Recombinant, phosphorylated p38 MAPK γ (MAPK12:Millipore) was diluted in HEPES buffer, mixed with compound at the desired final concentrations and incubated for 2 hr at RT. The FRET peptide (2 μM) and ATP (100 μM) were next added to the enzyme/compound mixture and incubated for 1 hr. Development reagent (protease) was added for 1 hr prior to detection in a fluorescence microplate reader. The site-specific protease only cleaves non-phosphorylated peptide and eliminates the FRET signal. Phosphorylation levels of each reaction were calculated using the ratio of coumarin emission (donor) over fluorescein emission (acceptor) with high ratios indicating high phosphorylation levels and low ratios indicating low phosphorylation levels.
For p38 MAPK alpha (MAPK14: Invitrogen), enzyme activity was evaluated indirectly by determining activation/phosphorylation of the down-stream molecule, MAPKAP-K2. The p38 MAPK a protein was mixed with compound for 2 hr at RT. […] Development reagent was then added and the mixture incubated for 1 hr before detection by fluorescence completed the assay protocol.
The enzyme inhibitory activity of compound was determined by fluorescence resonance energy transfer (FRET) using synthetic peptides labelled with both donor and acceptor fluorophores (Z′-LYTE, Invitrogen).

Another data set deals with HRV16. The experiment in a line: Rhinovirus-titre assay. In kind it is cell-based, human rhinovirus. Particulars: HRV16; for inhibition at 0.04 µg/mL: Human rhinovirus sp., cell not marked b, test compounds 0.04 μg/mL per method (footnote b, 0.2 μg/mL), read-out: HRV titre (inhibitory %): % inhibition observed vs. HRV16 infection control; for NBEC (HRV) HRV titre Relative anti-viral activity: at 0.04 μg/mL vs. pleconaril at 0.1 μg/mL. Here is the method:
MRC5 cells (human lung fibroblast, ATCC) were infected with 1 MOI (multiplicity of infection of 1.0) of HRV16 and incubated for 1 hr at 33° C. with gentle shaking to stimulate adsorption. The cells were then washed with PBS, fresh media was added and the cells were incubated for a further 96 hr. The supernatant was collected and 10-fold serial dilutions of virus containing supernatant were prepared. All titrations were performed by infecting confluent Hela cell monolayers with serially diluted supernatant (10^−1-10^−5) and assessing the cytopathic effect by visual inspection 4 days after infection. The amount of virus required to infect 50% of Hela cells was calculated in each treatment as TCID50. Test compounds (0.04 μg/mL) were added 2 hr before HRV infection and 1 hr after infection when non-infected HRV was washed out. The anti-HRV activity of each test compound was determined as the difference of the log TCID50 of HRV16 in the presence of the compound with the log TCID50 of HRV16 in the absence of compound. […]

The target in another data set is p38 MAPK γ (MAPK12) (Homo sapiens (Human), UniProt P53778). The experiment in a line: Enzyme inhibition assay (FRET, Z-LYTE), p38 MAPK gamma. The class given is biochemical. The following applies: read-out: Enzyme Profile: IC50 Values p38γ. Here is the method:
as §1

Data set [3] relates to TNFα release in d-U937 cells. Nature of the data set: LPS-induced TNFα release in d-U937 cells. The class given is cell-based. Particulars: Homo sapiens, dU937, LPS 0.1 μg/mL, 4 hr, relative to 10 μg/mL BIRB796, read-out: d-U937 (LPS) TNFα REC50. The method, then: (§2) U937 cells, a human monocytic cell line, were differentiated to macrophage-type cells by incubation with phorbol myristate acetate (PMA; 100 ng/mL) for 48 to 72 hr, whereupon the cells become adherent. […] Coli: O111:B4, Sigma) for 4 hr. The supernatant was collected for determination of TNFα and IL-8 concentrations by sandwich ELISA (Duo-set, R&D systems). […] The relative 50% effective concentration (REC50) was determined from the resultant concentration-response curve. The inhibition of IL-8 production was calculated at each concentration of test compound by comparison with vehicle control.

In data set [4] the test system is IL-8 release in d-U937 cells. Nature of the data set: LPS-induced IL-8 release in d-U937 cells. In kind it is cell-based. The following applies: Homo sapiens, dU937; d-U937 cells, LPS 0.1 μg/mL, 4 hr; read-out: d-U937 (LPS) IL-8 IC50. Here is the method:
as §2

Data set [5] deals with Differentiated U937 cells. The experiment in a line: MTT assay: cell viability. In kind it is cell-based, human. Particulars: 1 μg/ml; for d-U937 MTT Assay 4 h: 5% FCS; for d-U937 MTT Assay 24 h: 10% FCS. The method, then: Differentiated U937 cells were pre-incubated with each test compound under two protocols: the first for 4 hr in 5% FCS and the second in 10% FCS for 24 h. The supernatant was replaced with 200 μL of new media and 10 μL of MTT stock solution (5 mg/mL) was added to each well. After incubation for 1 hr the media were removed, 200 μL of DMSO was added to each well and the plates were shaken lightly for 1 hr prior to reading the absorbance at 550 nm. The percentage loss of cell viability was calculated for each well relative to vehicle (0.5% DMSO) treatment. Consequently an apparent increase in cell viability for drug treatment relative to vehicle is tabulated as a negative percentage.
In general terms: Tetrazolium dyes change colour on reduction, which living cells bring about.

Consider `CC(C)(C)c1cc(NC(=O)Nc2ccc(Oc3ccnc4[nH]c(=O)[nH]c34)c3ccccc23)n(-c2ccccc2)n1` [Example 2, 1-(3-tert-butyl-1-phenyl-1H-pyrazol-5-yl)-3-(4-(2-oxo-2,3-dihydro-1H-imidazo [4,5-b]pyridin-7-yloxy)naphthalen-1-yl) urea], for which the IC50 in data set [1] is 9.8 nM; in data set [2], 1.4 nM; at cSrc enzyme, 36 nM; on HCK enzyme, under 2 nM; at p38 MAPK alpha (MAPK14), 5 nM; on p38 MAPK γ (MAPK12) it was 67 nM. Further, the IC50 in data set [4] worked out at 7.5 nM. Also, the inhibition at 0.04 µg/mL in the data set with HRV16 amounted to 60%. Besides, the “NBEC (HRV) HRV titre Relative anti-viral activity” value in the data set on HRV16 is recorded as 1. The EC50 in data set [3] was determined as 3 nM. Also, the “d-U937 MTT Assay 4 h” value in data set [5] was “− (− and + indicate the result is below and above the no significant effect threshold, respectively (<30% inhibition at a concentration of 1 μg/ml))”. The “d-U937 MTT Assay 24 h” value in [5] was “− (− and + indicate the result is below and above the no significant effect threshold, respectively (<30% inhibition at a concentration of 1 μg/ml))”.

In the case of `COc1ccc(-n2nc(C(C)(C)C)cc2NC(=O)Nc2ccc(Oc3ccnc4[nH]c(=O)[nH]c34)c3ncccc23)cc1` [Example 14, 1-(3-(tert-Butyl)-1-(4-methoxyphenyl)-1H-pyrazol-5-yl)-3-(8-((2-oxo-2,3-dihydro-1H-imidazo[4,5-b]pyridin-7-yl)oxy)quinolin-5-yl)urea], the IC50 in data set [1] is 675 nM; in data set [2] it was 163 nM; at cSrc enzyme, 0.8 nM; on HCK enzyme, under 2 nM; on p38 MAPK alpha (MAPK14), 5 nM; on p38 MAPK γ (MAPK12), 180 nM. The IC50 in [4] is 726 nM. In the data set with HRV16, the inhibition at 0.04 µg/mL turned out to be 8%. Further, in the data set on HRV16, the “NBEC (HRV) HRV titre Relative anti-viral activity” value was found to be 1.5. Besides, in data set [3], the EC50 amounted to 166 nM. In [5], the “d-U937 MTT Assay 4 h” value is “− (− and + indicate the result is below and above the no significant effect threshold, respectively (<30% inhibition at a concentration of 1 μg/ml))”. Also, the “d-U937 MTT Assay 24 h” value in data set [5] was “− (− and + indicate the result is below and above the no significant effect threshold, respectively (<30% inhibition at a concentration of 1 μg/ml))”.

On to `COc1ccc(-n2nc(C(C)(C)C)cc2NC(=O)Nc2ccc(Oc3ccnc4[nH]c(=O)n(C(C)C)c34)c3ccccc23)cc1` [Example 12], for which the IC50 in [1] is 1.9 nM; in [2], 1.3 nM; at cSrc enzyme it was 12 nM; on HCK enzyme, 8 nM; at p38 MAPK alpha (MAPK14) it was 11 nM; at p38 MAPK γ (MAPK12), 495 nM. Further, the IC50 in data set [4] was determined as 1.1 nM. The inhibition at 0.04 µg/mL in the data set with HRV16 was 94%. Also, the EC50 in data set [3] is 0.5 nM. In addition, in data set [5], the “d-U937 MTT Assay 4 h” value was “− (− and + indicate the result is below and above the no significant effect threshold, respectively (<30% inhibition at a concentration of 1 μg/ml))”. For the same molecule, in [5], the “d-U937 MTT Assay 24 h” value is “− (− and + indicate the result is below and above the no significant effect threshold, respectively (<30% inhibition at a concentration of 1 μg/ml))”.

Turning to `COc1ccc(-n2nc(C(C)(C)C)cc2NC(=O)Nc2ccc(Oc3ccnc4[nH]c(=O)[nH]c34)c3ccccc23)cc1` [Example 9], the IC50 was 24 nM in data set [1]; 1.6 nM in data set [2]; 7 nM at cSrc enzyme; under 2 nM on HCK enzyme; 21 nM at p38 MAPK alpha (MAPK14); 119 nM on p38 MAPK γ (MAPK12). The IC50 in data set [4] turned out to be 27 nM. In the data set on HRV16, the inhibition at 0.04 µg/mL turned out to be 36%. In the data set with HRV16, the “NBEC (HRV) HRV titre Relative anti-viral activity” value came to 3.2. Moreover, in data set [3], the EC50 came to 3.1 nM. Besides, in data set [5], the “d-U937 MTT Assay 4 h” value was “− (− and + indicate the result is below and above the no significant effect threshold, respectively (<30% inhibition at a concentration of 1 μg/ml))”. Moreover, the “d-U937 MTT Assay 24 h” value in [5] is “− (− and + indicate the result is below and above the no significant effect threshold, respectively (<30% inhibition at a concentration of 1 μg/ml))”.

Take `CC(C)(C)c1cc(NC(=O)Nc2ccc(Oc3ccnc4[nH]c(=O)cnc34)c3ccccc23)n(-c2ccc(O)cc2)n1` [Example 16, 1-(3-(tert-Butyl)-1-(4-hydroxyphenyl)-1H-pyrazol-5-yl)-3-(4-((3-oxo-3,4-dihydropyrido[2,3-b]pyrazin-8-yl)oxy)naphthalen-1-yl)urea]: the IC50 in data set [1] came to 172 nM; in data set [2], 116 nM; at cSrc enzyme it was 10 nM; at HCK enzyme, 18 nM; at p38 MAPK alpha (MAPK14) it was 4 nM; on p38 MAPK γ (MAPK12) it was 45 nM. The IC50 in data set [4] is 47 nM. Moreover, the inhibition at 0.04 µg/mL with HRV16 is 8%. Moreover, the EC50 in data set [3] worked out at 55 nM. Besides, the “d-U937 MTT Assay 4 h” value in [5] is “− (− and + indicate the result is below and above the no significant effect threshold, respectively (<30% inhibition at a concentration of 1 μg/ml))”. Also, the “d-U937 MTT Assay 24 h” value in [5] was “− (− and + indicate the result is below and above the no significant effect threshold, respectively (<30% inhibition at a concentration of 1 μg/ml))”.

As for `CC(C)(C)c1cc(NC(=O)Nc2ccc(Oc3ccnc4[nH]c(=O)cnc34)c3ccccc23)n(-c2ccccc2)n1` [Example 5, 1-(3-(tert-butyl)-1-phenyl-1H-pyrazol-5-yl)-3-(4-((3-oxo-3,4-dihydropyrido[2,3-b]pyrazin-8-yl)oxy)naphthalen-1-yl) urea], the IC50 in data set [1] is 6.6 nM; in data set [2], 13 nM; at cSrc enzyme, 5 nM; at HCK enzyme, 3 nM; on p38 MAPK alpha (MAPK14), 2 nM; on p38 MAPK γ (MAPK12), 43 nM. In data set [4], the IC50 came to 4.1 nM. In addition, the inhibition at 0.04 µg/mL in the data set with HRV16 amounted to 36%. Further, the EC50 in data set [3] is 6.2 nM. Also, the “d-U937 MTT Assay 4 h” value in data set [5] was “− (− and + indicate the result is below and above the no significant effect threshold, respectively (<30% inhibition at a concentration of 1 μg/ml))”. Moreover, the “d-U937 MTT Assay 24 h” value in data set [5] was “− (− and + indicate the result is below and above the no significant effect threshold, respectively (<30% inhibition at a concentration of 1 μg/ml))”.

As a reminder, the IC50 is the point on the concentration scale where inhibition reaches its midpoint. By inhibition is commonly meant the percentage by which the read-out fell short of the control.

The record behind these values is patent publication US8933228B2, “Respiratory formulations and compounds for use therein” (Respivert, Ltd., priority 2010, dated 2015).
